According to patent EP4268810A1 (priority 2022, dated 2023):
Where two headings read alike, the source gives them in different places.

What was measured:
icSARS-CoV-2-mNG [1] = system: icSARS-CoV-2-mNG
icSARS-CoV-2-mNG [2] = conditions: for Therapeutic range: CC50/IC50, CTG / Therapeutic range: CC50/IC50, IncuCyte / Therapeutic range: CC50/IC50, MTT: human, calu-3 cells
icSARS-CoV-2-mNG [3] = assay: microbe, parasite or virus in culture; conditions: Severe acute respiratory syndrome coronavirus 2, Calu-3
Calu-3 cells [4] = conditions: read-out: CC50 IncuCyte, 72h, cell confluency, 4320 min
Description: (§1) Calu-3 (40.000/well), Huh7.5 (10.000/well) and CaCo2 (10.000/well) cells were seeded in 96-well plates in DMEM-Media. The cells were treated with the drug compounds at the indicated concentrations, negative control (non-treated), DMSO control and positive control (50% DMSO treated) were added, and plates were then stored in the IncuCyte® at 37 °C, 5 % CO2 for 72h measuring every 3 hours cell confluency via phase channel with 10x objective. For Analysis IncuCyte® S3 Software was used.
(§2) Plates were then stored in the IncuCyte® measuring every 3 hours cell confluency.

in vitro [5] = conditions: human, caco-2
Description: as §1, §2

[6] = system: DENV type 2 reporter virus; assay: microbe, parasite or virus in culture; conditions: Dengue virus
[7] = system: DENV type 2 reporter virus
Huh7.5 cells [8] = assay: Cell viability via live cell imaging (IncuCyte); conditions: read-out: CC50 IncuCyte, 72h, cell confluency
Description: as §1, §2

in vitro [9] = conditions: human, calu-3 cells, CC50 IncuCyte
Description: as §1, §2

in vitro [10] = conditions: human, huh7.5 cells, CC50 MTT
Huh7.5 cells [11] = conditions: read-out: CC50 MTT, 72h, 4320 min
Calu-3 cells [12] = conditions: read-out: CC50 MTT, 72h

Compound	SARS-CoV-2 infection (infection rate, mNG+/Hoechst+ cells) (icSARS-CoV-2-mNG [1])	toxicity (staining of the nuclei, cell count) (icSARS-CoV-2-mNG [2])	IC50 (icSARS-CoV-2-mNG [3]) [µM]	IC50 ([6]; Huh7.5, 24 h) [µM]	Therapeutic range: CC50/IC50, CTG (icSARS-CoV-2-mNG [2])	Therapeutic range: CC50/IC50, IncuCyte (icSARS-CoV-2-mNG [2])	Therapeutic range: CC50/IC50, MTT (icSARS-CoV-2-mNG [2])	other results
O[C@H]1[C@H](O)[C@@H](O)[C@H](O)[C@@H](O)[C@@H]1O [Scyllo-Inositol]	did not show any activity							
CN(C)C(=N)N=C(N)N [Metformin]		without any cytotoxicity	459					
CC(C)Cc1nn(C)c(=O)c2c(SCCCO)n(Cc3cccc4ccccc34)cc12 [SR13800]								toxicity (cell viability by Hoechst staining of the nucleus) (icSARS-CoV-2-mNG [1]): toxic
COc1[nH]c(=O)c(C(=O)C(C)CC(C)C(Cl)CCl)c(O)c1OC (centres unmarked) [Atpenin A5]	inhibited SARS-CoV-2 infection of the cell lines in a dose-dependent manner		0.5	0.27	CTG: 1.72	IncuCyte: > 320	MTT: 24	CC50 (Calu-3 cells [4]): > 80 µM; CC50 at 72 h (in vitro [5]): > 60 µM; Therapeutic range: CC50/IC50, CTG ([7]; Dengue Virus in Huh7.5 cells, CC50 by CTG): CTG: 229.5; Therapeutic range: CC50/IC50, IncuCyte ([7]; Dengue Virus in Huh7.5 cells, CC50 by IncuCyte): IncuCyte: 240.7; Therapeutic range: CC50/IC50, MTT ([7]; Dengue Virus in Huh7.5 cells, CC50 by MTT): MTT: 375.2; CC50 (Huh7.5 cells [8]): 65 µM; CC50 at 72 h (in vitro [9]; 72h, cell confluency): > 160 µM
[H]/N=C(/N)N/C(=N/[H])NCCc1ccccc1 [Phenformin, phenformin]	inhibited SARS-CoV-2 infection of the cell lines in a dose-dependent manner	without any toxicity	1.73	18.6	CTG: 1306.4	IncuCyte: 867.1	MTT: 876.3	CC50 at 72 h (in vitro [10]): 61 µM; IC50 ([6]; Huh7.5): 18.6 µM; Therapeutic range: CC50/IC50, CTG ([7]; human, huh7.5 cells): CTG: 109.2; Therapeutic range: CC50/IC50, IncuCyte ([7]; human, huh7.5 cells): IncuCyte: 59.9; Therapeutic range: CC50/IC50, MTT ([7]; human, huh7.5 cells): MTT: 3.3; CC50 (Huh7.5 cells [11]): 61.2 µM; CC50 at 72 h (in vitro [9]): 1500 µM; CC50 (Calu-3 cells [12]): 1520 µM
